These results are taken from PubChem BioAssay (NCI).

Several values for one entry are separate records, joined by “and”; a condition that tells them apart may be missing. Identical values can stand only once.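 48-hour exposure; five concentrations; linearly interpolated endpoints. Abbreviation: GI50, concentration required for 50% inhibition of growth. The concentration for full growth arrest is given as TGI.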

Test systems include SK-OV-3 ovarian; EKVX NSCLC; UO-31 renal; SNB-75 CNS; SF-539 CNS; KM20L2 colon; DMS 273 small cell lung; RXF 393 renal; MDA-MB-435; MDA-MB-231 breast; T-47D breast.
Assay in all cases: NCI tumour cell line growth inhibition, 48 h

With `O=C1c2ccccc2C(=O)c2c1ccc1c2N=C(c2ccc(F)cc2)CC(c2ccc(Cl)c(Cl)c2)N1` (stereo not drawn), the TGI in the assay on SK-OV-3 ovarian amounted to 48.9 µM; in the assay with EKVX NSCLC it was 20.3 µM; with UO-31 renal it was 23.5 µM; in the assay with SNB-75 CNS it was 40.2 µM; with SF-539 CNS, 34.9 µM; in the assay on KM20L2 colon, 30.8 µM.
As to `CSc1nc(NC2OCC(O)C(O)C2O)c(N)c(=O)n1C` (stereo not drawn), the TGI in the assay on DMS 273 small cell lung, with SK-OV-3 ovarian, in the assay on EKVX NSCLC, in the assay on UO-31 renal, in the assay with RXF 393 renal and with SNB-75 CNS was > 100 µM in each case. Moreover, the TGI in the assay with SF-539 CNS and in the assay on KM20L2 colon was > 100 µM each time.
As for `COc1ccc(C[C@H](N)C(=O)N2C[C@H](CO)C[C@H](n3ccc(=O)[nH]c3=O)C2)cc1`, the TGI in the assay on DMS 273 small cell lung, in the assay with SK-OV-3 ovarian, in the assay with EKVX NSCLC, in the assay on UO-31 renal, in the assay on RXF 393 renal and in the assay on SF-539 CNS was > 100 µM in each case. Besides, in the assay on KM20L2 colon, the TGI is > 100 µM.
`[N-]=[N+]=NC1CC(n2cc(COCC(F)(F)F)c(=O)[nH]c2=O)OC1CO` (stereo not drawn): the TGI in the assay with DMS 273 small cell lung, with SK-OV-3 ovarian, in the assay on EKVX NSCLC, in the assay with UO-31 renal, in the assay on RXF 393 renal and in the assay on SNB-75 CNS was > 100 µM in each case. Besides, the TGI with SF-539 CNS and in the assay with KM20L2 colon was > 100 µM throughout.
In the case of `Oc1ccc2c(c1)CC[N+]1=C2CCC2CCCC21` (stereo not drawn), the TGI in the assay on DMS 273 small cell lung, with SK-OV-3 ovarian, with EKVX NSCLC, in the assay with UO-31 renal, in the assay with RXF 393 renal and in the assay on SNB-75 CNS was > 100 µM each time. Besides, the TGI in the assay with SF-539 CNS was > 100 µM.
With `CC(=O)OCc1cc(=O)n(C)c2c3c4c(cc12)c(C)cc(=O)n4CO3`, the TGI in the assay with DMS 273 small cell lung was determined as 3.86 µM; with SK-OV-3 ovarian it was 51 µM; in the assay with EKVX NSCLC, 11.2 µM; in the assay with UO-31 renal, 26.5 µM; in the assay on RXF 393 renal, 3.33 µM; with SNB-75 CNS it was 4.69 µM. Moreover, the TGI amounted to 3.95 µM in the assay on SF-539 CNS and 15.8 µM in the assay with KM20L2 colon.
On to `COc1cccc2c1C1(O)C2CCCC12OCCCO2` (stereo not drawn), for which the TGI in the assay on DMS 273 small cell lung, with SK-OV-3 ovarian, with UO-31 renal, with RXF 393 renal, with SNB-75 CNS and in the assay on SF-539 CNS was > 100 µM each time. In the assay with KM20L2 colon, the TGI is > 100 µM.
Consider `COC(=O)c1nc(-c2ccc3c(n2)C(=O)C(N)=C(OC)C3=O)c(N)c(-c2ccc(OC)c(OC)c2O)c1C`, for which the TGI in the assay with DMS 273 small cell lung worked out at 1.46 µM; with SK-OV-3 ovarian, 3.73 µM; in the assay with EKVX NSCLC, 7.95 µM; in the assay on UO-31 renal, 2.46 µM; with RXF 393 renal it was 3.55 µM; with SNB-75 CNS, 3.73 µM. Further, the TGI with SF-539 CNS is 1.39 µM; with KM20L2 colon, 5.97 µM.
As for `Cc1cc(Nc2ccc(N=Nc3ccc(O)c4ncccc34)cc2)nc(C)n1`, the TGI in the assay on SK-OV-3 ovarian is > 72.7 µM; in the assay on EKVX NSCLC, > 79.3 µM; in the assay with MDA-MB-435, 29.6 µM; with MDA-MB-231 breast it was 73.7 µM; with UO-31 renal it was 36.5 µM; in the assay with RXF 393 renal, 34.6 µM. For the same compound, the results for the TGI in the assay with SNB-75 CNS, with T-47D breast and in the assay on SF-539 CNS were 43.6 µM, 35.6 µM and 20.6 µM, respectively.
Regarding `Cc1cc(NS(=O)(=O)c2ccc(NC(=O)c3cccc4c(NNc5ccc(S(=O)(=O)N=C(N)N)cc5)c5ccccc5nc34)cc2)no1`, the TGI was > 100 µM in the assay with SK-OV-3 ovarian; 93.2 µM in the assay on EKVX NSCLC; > 100 µM in the assay on MDA-MB-435; > 100 µM in the assay on MDA-MB-231 breast; > 100 µM with UO-31 renal; > 100 µM with RXF 393 renal. Further, the TGI was 88.3 µM in the assay on SNB-75 CNS, > 100 µM in the assay with T-47D breast and > 100 µM with SF-539 CNS.
For the compound `CC(NC(=O)OCc1ccccc1)NC(=O)C(CC(=O)OC(C)(C)C)NC(=O)OC(C)(C)C` (stereo not drawn), the TGI in the assay with SK-OV-3 ovarian, in the assay on EKVX NSCLC, with MDA-MB-435, in the assay on MDA-MB-231 breast, with UO-31 renal and with RXF 393 renal was > 100 µM throughout. The TGI in the assay with SNB-75 CNS, in the assay on T-47D breast and in the assay on SF-539 CNS was > 100 µM throughout.
Turning to `Cc1nccn1S(=O)(=O)c1ccc(Br)cc1Br`, the TGI was > 100 µM in the assay with SK-OV-3 ovarian; 96.8 µM in the assay on EKVX NSCLC; 46 µM with MDA-MB-435; 48.5 µM in the assay on MDA-MB-231 breast; 68.7 µM in the assay on UO-31 renal; 76.3 µM in the assay with RXF 393 renal. The TGI with SNB-75 CNS is 57.9 µM; with T-47D breast, > 100 µM; with SF-539 CNS, 41.4 µM.
Regarding `N#CC(C#N)=Cc1c(O)ccc2ccccc12`, the TGI with SK-OV-3 ovarian turned out to be 34.7 µM; in the assay on EKVX NSCLC, 26.3 µM; with MDA-MB-435, 30 µM; in the assay on MDA-MB-231 breast, 30.4 µM; in the assay with UO-31 renal, 28.5 µM; in the assay on RXF 393 renal it was 31.2 µM. The TGI turned out to be 17.9 µM with SNB-75 CNS, 46.4 µM in the assay on T-47D breast and 29.1 µM in the assay on SF-539 CNS.
Take `CC(NC1=NCCO1)c1cccc([N+](=O)[O-])c1` (stereo not drawn): the TGI in the assay with SK-OV-3 ovarian, in the assay on EKVX NSCLC, in the assay with MDA-MB-435, in the assay with MDA-MB-231 breast, in the assay with UO-31 renal and in the assay with RXF 393 renal was > 100 µM each time. The TGI in the assay with SNB-75 CNS, with T-47D breast and with SF-539 CNS was > 100 µM each time.
Take `N/N=C1/C(=N/O)CCc2nonc21`: the TGI in the assay with SK-OV-3 ovarian, in the assay on EKVX NSCLC, with MDA-MB-435, with MDA-MB-231 breast, with UO-31 renal and with RXF 393 renal was > 100 µM each time. Further, the TGI with SNB-75 CNS, with T-47D breast and in the assay on SF-539 CNS was > 100 µM each time.
`CC1CCc2c(sc3ncnc(N/N=C/c4ccc(Cl)c(Cl)c4)c23)C1` (stereo not drawn): the TGI in the assay with DMS 273 small cell lung is 39.6 µM; in the assay on SK-OV-3 ovarian, 89.6 µM; in the assay on EKVX NSCLC, 89.8 µM; in the assay with UO-31 renal, 43.8 µM; in the assay with RXF 393 renal, 70.3 µM; in the assay with SNB-75 CNS it was 61.6 µM. Also, the TGI is 60.6 µM in the assay with SF-539 CNS and > 100 µM in the assay on KM20L2 colon.
Regarding `CN(C)CCCNc1c2ccccc2nc2cccc([N+](=O)[O-])c12`, the TGI with DMS 273 small cell lung was 0.0184 µM; in the assay on SK-OV-3 ovarian it was 0.0921 µM and 0.0723 µM; with EKVX NSCLC it was 0.448 µM; in the assay on MDA-MB-435 it was 0.00242 µM; in the assay with MDA-MB-231 breast, 0.00712 µM; with UO-31 renal, 0.0107 µM and 0.0363 µM. Further, the TGI is 0.00757 µM and 0.0252 µM in the assay with SF-539 CNS; 0.0398 µM with KM20L2 colon. The results for the GI50 with SK-OV-3 ovarian and with UO-31 renal were 0.0204 µM and < 0.001 µM, respectively.
With `O=c1[nH]c2cc3cccnc3c(Cl)c2nc1C(F)(F)F`, the TGI with SK-OV-3 ovarian, in the assay on EKVX NSCLC, in the assay on MDA-MB-435, with MDA-MB-231 breast, in the assay on UO-31 renal and with RXF 393 renal was > 100 µM throughout. For the same compound, the results for the TGI in the assay with SNB-75 CNS, with T-47D breast and in the assay on SF-539 CNS were 90.1 µM, 88.1 µM and > 100 µM, respectively.
Turning to `CC(=O)NC1=C(C)C(=O)c2c(nc3n2CCC3O)C1=O` (stereo not drawn), the TGI in the assay with DMS 273 small cell lung is > 100 µM; in the assay on SK-OV-3 ovarian, > 100 µM; in the assay with EKVX NSCLC it was 51.4 µM; in the assay with UO-31 renal, > 100 µM; in the assay on RXF 393 renal it was 48.3 µM; with SNB-75 CNS it was > 100 µM. Besides, the TGI with SF-539 CNS is 51.3 µM; in the assay with KM20L2 colon it was > 100 µM.
As for `N=S(=O)(c1ccccc1)c1ccccc1[N+](=O)[O-]` (stereo not drawn), the TGI in the assay on DMS 273 small cell lung, in the assay with SK-OV-3 ovarian, in the assay on EKVX NSCLC, in the assay with UO-31 renal, in the assay with RXF 393 renal and in the assay on SNB-75 CNS was > 100 µM each time. Besides, the TGI in the assay on SF-539 CNS and in the assay with KM20L2 colon was > 100 µM each time.
For `CCNC(=O)/C=C/CCC#Cc1ccc(-c2ccc(-c3cccs3)s2)s1`, the TGI in the assay with DMS 273 small cell lung, with SK-OV-3 ovarian, in the assay on EKVX NSCLC, with UO-31 renal, with RXF 393 renal and in the assay on SNB-75 CNS was > 100 µM throughout. The TGI in the assay with SF-539 CNS and in the assay on KM20L2 colon was > 100 µM each time.
